23 compounds from US20210309657A1, “TRICYCLIC COMPOUNDS FOR THE TREATMENT AND PROPHYLAXIS OF BACTERIAL INFECTION” (Hoffmann-La Roche Inc., priority 2018, published 2021) can be followed below.

Converted amounts (≈) assume the structure as drawn. Read-outs that look alike come from different tables or passages of the source.

One series relates to S. aureus (ATCC29213). In words: 50% growth inhibitory concentration (IC50) determination assay, S. aureus. The series is classed as cell-based. The conditions noted are these: Staphylococcus aureus, growth inhibition, Iso-Sensitest broth, OD 600 nm over 16h, <0.098 = the detection limit. On the procedure:
(§1) The in vitro antimicrobial activity of the compounds against S. aureus (ATCC29213), K. pneumoniae (ATCC10031), and A. baumannii (ATCC17978), was determined according to the following procedure: The assay used a 10-points Iso-Sensitest broth medium to measure quantitatively the in vitro activity of the compounds against S. aureus ATCC29213, K. pneumoniae ATCC 10031, and A. baumannii ATCC17978. Stock compounds in DMSO were serially two-fold diluted (range from 50 to 0.097 μM final concentration) in 384 wells microtiter plates and inoculated with 49 μL the bacterial suspension in Iso-Sensitest broth medium to have a final cell concentration of ˜5×10^5 CFU/mL in a final volume/well of 50 μL/well. Microtiter plates were incubated at 35±2° C. Bacterial cell growth was determined with the measurement of optical density at λ=600 nm each 20 minutes over a time course of 16h. Growth inhibition was calculated during the logarithmic growth of the bacterial cells with determination of the concentration inhibiting 50% (IC50) of the growth. Compounds of the present invention were tested for their concentration inhibiting 50% (IC50). The data of IC50 over S. aureus (ATCC29213), K. pneumoniae (ATCC10031), and A. baumannii (ATCC17978) are illustrated in Table 4.

Series [1] relates to K. pneumoniae (ATCC10031). The series is described as follows: 50% growth inhibitory concentration (IC50) determination assay, K. pneumoniae. The class given is cell-based. The conditions noted are these: Klebsiella pneumoniae, growth inhibition, Iso-Sensitest broth, OD 600 nm over 16h, <0.098 = the detection limit. The protocol:
as §1

A further series relates to A. baumannii (ATCC17978). In words: 50% growth inhibitory concentration (IC50) determination assay, A. baumannii. Conditions: Acinetobacter baumannii, growth inhibition, Iso-Sensitest broth, OD 600 nm over 16h, <0.098 = the detection limit. The series is classed as cell-based. On the procedure:
as §1

Series [2] can be described thus: Lyophilisation solubility assay (LYSA). The class given is physicochemical. Conditions: thermodynamic from solid. The protocol: The solubility of compounds of present invention was assessed by LYSA assay. Samples were prepared in duplicate from 10 mM DMSO stock solutions ([…]) diluted in 30 μL pure DMSO. After evaporation of DMSO with a centrifugal vacuum evaporator, the residue was dissolved in 0.05 M phosphate buffer (150 μL, pH 6.5), which was stirred for one hour and shook for two hours. After one night, the solution was filtered using a microtiter filter plate. Then the filtrate and its 1/10 dilution were analyzed by HPLC-UV. In addition, a four-point calibration curve was prepared from the 10 mM stock solutions and used for the solubility determination of the compounds.

The mark [3] stands for this setting: aqueous buffer, 0.05 M phosphate buffer, pH 6.5, HPLC-UV, <1.0 = the detection limit, read-out: Lysa.

With `CCNc1cc(F)c(C)c2c1[nH]c1ncc(-c3cncc(C#N)c3)c(N3CCC(CN)C3)c12` (stereo not drawn) [Example 1.45, 5-(4-(3-(Aminomethyl)pyrrolidin-1-yl)-8-(ethylamino)-6-fluoro-5-methyl-9H-pyrido[2,3-b]indol-3-yl)nicotinonitrile], the figures for the IC50 (with S. aureus (ATCC29213); in series [1]; with A. baumannii (ATCC17978)) were 992 nM, 172 nM and 528 nM, respectively.

For the compound `CCNc1cc(F)cc2c1[nH]c1ncc(-c3cncc(C#N)c3)c(N3CCCC3CN)c12` (stereo not drawn) [Example 1.06, 5-[4-[2-(Aminomethyl)pyrrolidin-1-yl]-8-(ethylamino)-6-fluoro-9H-pyrido[2,3-b]indol-3-yl]pyridine-3-carbonitrile], in series [2] (setting [3]), the solubility thermodynamic was above 625 µg/mL.

For `CCNc1cc(F)cc2c1[nH]c1ncc(-c3cnc(C4(C(=O)O)CC4)nc3)c(N(C)C)c12` [Example 2.01, 1-[5-[4-(Dimethylamino)-8-(ethylamino)-6-fluoro-9H-pyrido[2,3-b]indol-3-yl]pyrimidin-2-yl]cyclopropanecarboxylic acid], the solubility thermodynamic in series [2] (setting [3]) is 129 µg/mL (≈ 297 µM).

In the series on S. aureus (ATCC29213), `CNc1cc(F)cc2c1[nH]c1ncc(-c3cncc(C#N)c3)c(N3C4CNCC3C4)c12` [Example 1.60, 5-(4-(3,6-Diazabicyclo[3.1.1]heptan-6-yl)-6-fluoro-8-(methylamino)-9H-pyrido[2,3-b]indol-3-yl)nicotinonitrile] showed an IC50 of 842 nM. In series [2] (pH 6.5, aqueous buffer), this compound came in with a solubility thermodynamic of 53 µg/mL (≈ 128 µM).

`CNc1cc(F)c(F)c2c1[nH]c1ncc(-c3cnc(OC)nc3)c(N3CCC(C)(CN)C3)c12` (stereo not drawn) [Example 1.36, 4-[3-(Aminomethyl)-3-methyl-pyrrolidin-1-yl]-5,6-difluoro-3-(2-methoxypyrimidin-5-yl)-N-methyl-9H-pyrido[2,3-b]indol-8-amine]: in series [2] (setting [3]), the solubility thermodynamic is 140 µg/mL (≈ 309 µM).

Consider `CNc1cc(F)c(F)c2c1[nH]c1ncc(-c3cncc(C#N)c3)c(N3CCCC3CN)c12` (stereo not drawn) [Example 1.38, 5-[4-[2-(Aminomethyl)pyrrolidin-1-yl]-5,6-difluoro-8-(methylamino)-9H-pyrido[2,3-b]indol-3-yl]pyridine-3-carbonitrile], for which the solubility thermodynamic in series [2] (setting [3]) was above 610 µg/mL.

Turning to `CNc1cc(F)c(F)c2c1[nH]c1ncc(-c3cncc(C#N)c3)c(N3CCC4(C[C@@H]4N)C3)c12` (stereo in doubt) [Example 1.29, 5-[4-[Trans-2-amino-5-azaspiro[2.4]heptan-5-yl]-5,6-difluoro-8-(methylamino)-9H-pyrido[2,3-b]indol-3-yl]pyridine-3-carbonitrile], the IC50 in the series on S. aureus (ATCC29213) was found to be 1240 nM; in the series with A. baumannii (ATCC17978), 100 nM. Besides, the solubility thermodynamic in series [2] (setting [3]) was 16 µg/mL (≈ 35.9 µM).

For the compound `CNc1cc(F)cc2c1[nH]c1ncc(-c3cncc(C#N)c3)c(N3CC[C@@H](N)C3)c12` [Example 1.01, 5-[4-[(3R)-3-Aminopyrrolidin-1-yl]-6-fluoro-8-(methylamino)-9H-pyrido[2,3-b]indol-3-yl]pyridine-3-carbonitrile], the solubility thermodynamic in series [2] (setting [3]) is 59 µg/mL (≈ 147 µM).

`CNc1cc(F)c(F)c2c1[nH]c1ncc(-c3cnc(OC)nc3)c(N3CCCC3CN)c12` (stereo not drawn) [Example 1.37, 4-[2-(Aminomethyl)pyrrolidin-1-yl]-5,6-difluoro-3-(2-methoxypyrimidin-5-yl)-N-methyl-9H-pyrido[2,3-b]indol-8-amine]: in series [2] (setting [3]), the solubility thermodynamic came out at 545 µg/mL (≈ 1240 µM).

As for `CNc1cc(F)c(F)c2c1[nH]c1ncc(-c3cncc(C#N)c3)c(N3CCC4(C[C@H]4N)C3)c12` (stereo in doubt) [Example 1.30, 5-[4-[Cis-2-amino-5-azaspiro[2.4]heptan-5-yl]-5,6-difluoro-8-(methylamino)-9H-pyrido[2,3-b]indol-3-yl]pyridine-3-carbonitrile], the IC50 is 1010 nM in the series with S. aureus (ATCC29213) and below 98 nM in the series with A. baumannii (ATCC17978).

Take `CNc1cc(F)c(F)c2c1[nH]c1ncc(-c3cnc(OC)nc3)c(N3CCOC(CN)C3)c12` (stereo not drawn) [Example 1.33, 4-[2-(Aminomethyl)morpholin-4-yl]-5,6-difluoro-3-(2-methoxypyrimidin-5-yl)-N-methyl-9H-pyrido[2,3-b]indol-8-amine]: the solubility thermodynamic in series [2] (setting [3]) was 475 µg/mL (≈ 1040 µM).

With `CNc1cc(F)c(F)c2c1[nH]c1ncc(-c3cnc4ccnn4c3)c(N(C)C)c12` [Example 1.62, 5,6-Difluoro-N4,N4,N8-trimethyl-3-pyrazolo[1,5-a]pyrimidin-6-yl-9H-pyrido[2,3-b]indole-4,8-diamine], the IC50 with S. aureus (ATCC29213) was 1380 nM; in series [1], 238 nM; in the series on A. baumannii (ATCC17978), below 98 nM.

As to `CNc1cc(F)c(F)c2c1[nH]c1ncc(-c3cncc(C#N)c3)c(N3C4CNCC3C4)c12` [Example 1.58, 5-(4-(3,6-Diazabicyclo[3.1.1]heptan-6-yl)-5,6-difluoro-8-(methylamino)-9H-pyrido[2,3-b]indol-3-yl)nicotinonitrile], the IC50 in the series with S. aureus (ATCC29213) amounted to 231 nM; in the series with A. baumannii (ATCC17978), 182 nM. In addition, the solubility thermodynamic in series [2] (pH 6.5, aqueous buffer) worked out at 320 µg/mL (≈ 742 µM).

With `CNc1cc(F)c(F)c2c1[nH]c1ncc(-c3cncc(C#N)c3)c(N3CCC[C@@H](CN)C3)c12` [Example 1.40, 5-[4-[(3S)-3-(Aminomethyl)-1-piperidyl]-5,6-difluoro-8-(methylamino)-9H-pyrido[2,3-b]indol-3-yl]pyridine-3-carbonitrile], the solubility thermodynamic in series [2] (setting [3]) came to 49 µg/mL (≈ 109 µM).

Turning to `CNc1cc(F)c(F)c2c1[nH]c1ncc(-c3cncc(C#N)c3)c(N3CC4CC(C3)N4)c12` [Example 1.44, 5-(4-(3,6-Diazabicyclo[3.1.1]heptan-3-yl)-5,6-difluoro-8-(methylamino)-9H-pyrido[2,3-b]indol-3-yl)nicotinonitrile], in series [2] (pH 6.5, aqueous buffer), the solubility thermodynamic was 270 µg/mL (≈ 626 µM).

For `CNc1cc(F)cc2c1[nH]c1ncc(-c3cncc(C#N)c3)c(N3CCC(F)(CN)C3)c12` (stereo not drawn) [Example 1.23, 5-[4-[3-(Aminomethyl)-3-fluoro-pyrrolidin-1-yl]-6-fluoro-8-(methylamino)-9H-pyrido[2,3-b]indol-3-yl]pyridine-3-carbonitrile], in series [2] (setting [3]), the solubility thermodynamic was found to be 30 µg/mL (≈ 69.2 µM).

In the case of `CNc1cc(F)c(F)c2c1[nH]c1ncc(-c3cncc(C#N)c3)c(N3CCCC(CN)C3)c12` (stereo not drawn) [Example 1.21, 5-[4-[3-(Aminomethyl)-1-piperidyl]-5,6-difluoro-8-(methylamino)-9H-pyrido[2,3-b]indol-3-yl]pyridine-3-carbonitrile], in series [2] (setting [3]), the solubility thermodynamic came to 44 µg/mL (≈ 98.3 µM).

In the case of `CNc1cc(F)c(F)c2c1[nH]c1ncc(-c3cc[nH]c(=O)c3)c(N(C)C)c12` [Example 1.51, 4-[4-(Dimethylamino)-5,6-difluoro-8-(methylamino)-9H-pyrido[2,3-b]indol-3-yl]-1H-pyridin-2-one], the IC50 with S. aureus (ATCC29213) is 1040 nM; in series [1], below 98 nM; in the series on A. baumannii (ATCC17978), below 98 nM.

`CCNc1cc(Cl)cc2c1[nH]c1ncc(-c3cncc(C#N)c3)c(N3CCC(N)C3)c12` (stereo not drawn) [Example 1.03, 5-[4-(3-Aminopyrrolidin-1-yl)-6-chloro-8-(ethylamino)-9H-pyrido[2,3-b]indol-3-yl]pyridine-3-carbonitrile]: the solubility thermodynamic in series [2] (setting [3]) stood at 32.7 µg/mL (≈ 75.7 µM).

Regarding `CNc1cc(F)c(F)c2c1[nH]c1ncc(-c3cnc4ccnn4c3)c(N3CC[C@H]4CN(C)C[C@H]43)c12` (relative stereo) [Example 1.50, 4-[Cis-5-methyl-2,3,3a,4,6,6a-hexahydropyrrolo[2,3-c]pyrrol-1-yl]-5,6-difluoro-N-methyl-3-pyrazolo[1,5-a]pyrimidin-6-yl-9H-pyrido[2,3-b]indol-8-amine], the IC50 is 369 nM in the series on S. aureus (ATCC29213), below 98 nM in series [1] and below 98 nM with A. baumannii (ATCC17978).

`CCNc1cc(F)cc2c1[nH]c1ncc(-c3cncc(C#N)c3)c(N3CCC(F)(CN)C3)c12` (stereo not drawn) [Example 1.10, 5-[4-[3-(Aminomethyl)-3-fluoro-pyrrolidin-1-yl]-8-(ethylamino)-6-fluoro-9H-pyrido[2,3-b]indol-3-yl]pyridine-3-carbonitrile]: the half-maximal inhibitory concentration (IC50) in the series with S. aureus (ATCC29213) was 312 nM; in series [1] it was below 98 nM; with A. baumannii (ATCC17978) it was below 98 nM.

As for `CNc1cc(F)cc2c1[nH]c1ncc(-c3cnc(OC)nc3)c(N3CC(CN)C(F)(F)C3)c12` (stereo not drawn) [Example 3.02, 4-[4-(aminomethyl)-3,3-difluoro-pyrrolidin-1-yl]-6-fluoro-3-(2-methoxypyrimidin-5-yl)-N-methyl-9H-pyrido[2,3-b]indol-8-amine], the solubility thermodynamic in series [2] (setting [3]) turned out to be 196 µg/mL (≈ 428 µM).

For the compound `CNc1cc(F)c(F)c2c1[nH]c1ncc(-c3cnc(OC)nc3)c(N3CCC[C@@H](CN)C3)c12` [Example 1.25, 4-[(3S)-3-(Aminomethyl)-1-piperidyl]-5,6-difluoro-3-(2-methoxypyrimidin-5-yl)-N-methyl-9H-pyrido[2,3-b]indol-8-amine], the solubility thermodynamic in series [2] (setting [3]) came to 194 µg/mL (≈ 428 µM).
